Test results as given in paper PMC11915372, “Identification of a Series Containing a Pentafluorophenyl Moiety That Targets Pks13 to Inhibit Growth of Mycobacterium tuberculosis” (ACS Infectious Diseases, 2025).
Converted amounts (≈) assume the structure as drawn. Where two headings read alike, the source gives them in different places.

Columns and labels:
[1] = system: M. tuberculosis (H37Rv); test: microbe, parasite or virus in culture; type: cell-based, Mycobacterium tuberculosis; details: for MIC: Mycobacterium tuberculosis, H37RV
[2] = physchem; type: physicochemical
[3] = type: in vitro ADME, mouse
[4] = type: in vitro ADME, mouse; remark: listed apart in the source
[5] = physchem; details: pH 7.4
[6] = system: HepG2 cells; test: HepG2 cytotoxicity; details: Homo sapiens
Source text: Assays to establish HepG2 cytotoxicity, in vitro microsomal/hepatocyte metabolic stability, aqueous kinetic solubility, and in vivo pharmacokinetic profiles were all performed as previously described.[15],[35]−[37]

[7] = read-out: Wk2_7H9/DPPC/ casitone/ Tyloxapol MIC
[8] = read-out: Wk2_ 7H9/DPPC/ cholesterol/BSA/ Tyloxapol MIC
[9] = read-out: Wk2_7H9/glucose/ BSA/Tyloxapol MIC
[10] = read-out: Wk2_7H9/glucose/ casitone/ Tyloxapol MIC
[11] = pH 7.4, aqueous buffer, kinetic from dmso stock
[12] = HepG2, read-out: HepG2 inhibitory concentration (IC50)
[13] = kinetic solubility in water, read-out: Kin. Sol
[14] = pH 7.4, aqueous buffer, kinetic from dmso stock, pH7.4, read-out: Kinetic Solubility pH7.4
[15] = intrinsic clearance (Cli), CD1 mouse liver microsomes, Tables 1-4

Structure (SMILES) | MIC ([1]; read-out: H37Rv MIC A) [µM] | MIC ([1]; read-out: H37Rv MIC B) [µM] | MIC [1, 7] [µM] | MIC [1, 8] [µM] | MIC [1, 9] [µM] | MIC [1, 10] [µM] | solubility kinetic [2, 11] [µM] | solubility kinetic ([2]; read-out: Kin. Sol) [µM] | Microsomal Cli ([3]; CD1, mouse) [mL/min/g] | Mouse micro Cl ([3]; mouse, microsomes) [mLmin/g] | Hepatocyte Cli ([4]; mouse) [mL/min/g] | Mouse Heps Cl ([4]; mouse, hepatocytes) [mLmin/g] | IC50 [6, 12] [µM] | other results
CCOC(=O)c1nc(C)oc1NCc1c(F)c(F)c(F)c(F)c1F [Compound 29, CCOC(=O)c1nc(oc1NCc1c(c(c(c(c1F)F)F)F)F)C] | > 50 | > 50 | > 50 | > 50 | > 50 | > 50 | 23 (≈ 8.06 µg/mL) | 23 (≈ 8.06 µg/mL) | 32 | 32 | >50 | >50 | > 100 | chromatographic logD [5]: 3.2
CN(C)c1ccnc2oc(-c3c(F)c(F)c(F)c(F)c3F)nc12 [Compound 13, CN(C)c1ccnc2oc(nc12)-c1c(c(c(c(c1F)F)F)F)F] | 0.6 (≈ 0.198 µg/mL) | 3.1 (≈ 1.02 µg/mL) | 0.6 (≈ 0.198 µg/mL) | 3.1 (≈ 1.02 µg/mL) | 2.3 (≈ 0.757 µg/mL) | 0.6 (≈ 0.198 µg/mL) | 1.6 (≈ 0.527 µg/mL) | 1.6 (≈ 0.527 µg/mL) | >50 | >50 | >50 | >50 |  | 
Fc1c(F)c(F)c(-c2nc3c(N4CCOCC4)ncnc3s2)c(F)c1F [Compound 9, Fc1c(c(c(c(c1F)F)-c1nc2c(ncnc2s1)N1CCOCC1)F)F] |  | 0.6 (≈ 0.233 µg/mL) |  | 0.6 (≈ 0.233 µg/mL) | 0.6 (≈ 0.233 µg/mL) | 0.07 (≈ 0.0272 µg/mL) | 2.8 (≈ 1.09 µg/mL) | 2.8 (≈ 1.09 µg/mL) | 43 | 43 |  |  | > 100 | 
CCOC(=O)c1c(NC(=O)c2c(F)c(F)c(F)c(F)c2F)ncn1C [Compound 21, CCOC(=O)c1c(ncn1C)NC(=O)c1c(c(c(c(c1F)F)F)F)F] | 2.3 (≈ 0.835 µg/mL) | 6.3 (≈ 2.29 µg/mL) | 2.3 (≈ 0.835 µg/mL) | 6.3 (≈ 2.29 µg/mL) | 4.7 (≈ 1.71 µg/mL) | 1.6 (≈ 0.581 µg/mL) |  |  |  |  |  |  | > 100 | loss of MIC potency ([1]; relative to comparator of the series (21 vs thiophenes; 42 vs 24)): 10 fold; solubility kinetic [2, 13]: 203 µM (≈ 73.7 µg/mL); solubility kinetic [2, 14]: 203 µM (≈ 73.7 µg/mL); Mouse micro Cl [3, 15]: 8.6 mLmin/g; Microsomal Cli ([3]; supplement data table): 8.6 mL/min/g; chromatographic logD [5]: 2.2
CN(C)c1ncnc2sc(-c3ccccc3)nc12 [Compound 3, CN(C)c1ncnc2sc(nc12)-c1ccccc1] | > 50 | > 50 | > 50 | > 50 | > 50 | > 50 |  |  | >50 | >50 |  |  | > 100 | 
CCOC(=O)c1nc(C)oc1NC(=O)c1cc(F)c(F)c(F)c1 [Compound 26, CCOC(=O)c1nc(oc1NC(=O)c1cc(c(c(c1)F)F)F)C] | > 50 | > 50 | > 50 | > 50 | > 50 | > 50 |  |  |  |  |  |  |  | solubility kinetic [2, 13]: 241 µM (≈ 79.1 µg/mL); solubility kinetic [2, 14]: 241 µM (≈ 79.1 µg/mL); Mouse micro Cl [3, 15]: 7.1 mLmin/g; Microsomal Cli ([3]; supplement data table): 7.1 mL/min/g; chromatographic logD [5]: 2.3
CN(C)c1ncnc2sc(-c3cc(F)c(F)c(F)c3)nc12 [Compound 4, CN(C)c1ncnc2sc(nc12)-c1cc(c(c(c1)F)F)F] | > 50 | > 50 | > 50 | > 50 | > 50 | > 50 |  |  | >50 | >50 |  |  | > 100 | 
COC(=O)c1cccnc1NC(=O)c1c(F)c(F)c(F)c(F)c1F [Compound 17, COC(=O)c1cccnc1NC(=O)c1c(c(c(c(c1F)F)F)F)F] | 9.4 (≈ 3.25 µg/mL) | > 50 | 9.4 (≈ 3.25 µg/mL) | > 50 | > 50 | 12.5 (≈ 4.33 µg/mL) |  |  | 47 | 47 |  |  | > 100 | 
CNc1ncnc2oc(-c3c(F)c(F)c(F)c(F)c3F)nc12 [Compound 12, CNc1ncnc2oc(nc12)-c1c(c(c(c(c1F)F)F)F)F] | > 50 | > 50 | > 50 | > 50 | > 50 | > 50 | 227 (≈ 71.8 µg/mL) | 228 (≈ 72.1 µg/mL) | <0.5 | 0.5 | 4.7 | 4.7 | > 100 | 
COC(=O)c1ccncc1NC(=O)c1c(F)c(F)c(F)c(F)c1F [Compound 18, COC(=O)c1ccncc1NC(=O)c1c(c(c(c(c1F)F)F)F)F] | 4.7 (≈ 1.63 µg/mL) | 12.5 (≈ 4.33 µg/mL) | 4.7 (≈ 1.63 µg/mL) | 12.5 (≈ 4.33 µg/mL) | 12.5 (≈ 4.33 µg/mL) | 4.7 (≈ 1.63 µg/mL) | 109 (≈ 37.7 µg/mL) | 109 (≈ 37.7 µg/mL) | 27 | 27 |  |  | > 100 | chromatographic logD [5]: 2.8
CCN(CC)c1ncnc2sc(-c3c(F)c(F)c(F)c(F)c3F)nc12 [Compound 8, CCN(CC)c1ncnc2sc(nc12)-c1c(c(c(c(c1F)F)F)F)F] | 0.3 (≈ 0.112 µg/mL) | 0.78 (≈ 0.292 µg/mL) | 0.3 (≈ 0.112 µg/mL) | 0.8 (≈ 0.299 µg/mL) | 0.8 (≈ 0.299 µg/mL) | 0.4 (≈ 0.15 µg/mL) | 0.142 (≈ 0.0532 µg/mL) |  | 26 | 26 |  |  | > 100 | solubility kinetic ([2]; water, kinetic from dmso stock): 0.1 µM (≈ 0.0374 µg/mL)
Oc1ncnc2oc(-c3c(F)c(F)c(F)c(F)c3F)nc12 [Compound 15, Oc1ncnc2oc(nc12)-c1c(c(c(c(c1F)F)F)F)F] | 1.4 (≈ 0.424 µg/mL) | 9.4 (≈ 2.85 µg/mL) | 1.4 (≈ 0.424 µg/mL) | 9.4 (≈ 2.85 µg/mL) | 5.4 (≈ 1.64 µg/mL) | 3.9 (≈ 1.18 µg/mL) | 149 (≈ 45.2 µg/mL) | 149 (≈ 45.2 µg/mL) | 2.8 | 2.81 | >50 | >50 | 88 | 
CN(C)c1nccc2oc(-c3c(F)c(F)c(F)c(F)c3F)nc12 [Compound 14, CN(C)c1nccc2oc(nc12)-c1c(c(c(c(c1F)F)F)F)F] | 3.1 (≈ 1.02 µg/mL) | 9.4 (≈ 3.09 µg/mL) | 3.1 (≈ 1.02 µg/mL) | 9.4 (≈ 3.09 µg/mL) | 6.3 (≈ 2.07 µg/mL) | 3.1 (≈ 1.02 µg/mL) |  |  | >50 | >50 | >50 | >50 | > 100 | 
CN(C)c1ncnc2oc(-c3c(F)c(F)c(F)c(F)c3F)nc12 [Compound 6, CN(C)c1ncnc2oc(nc12)-c1c(c(c(c(c1F)F)F)F)F] | 0.2 (≈ 0.066 µg/mL) | 1.4 (≈ 0.462 µg/mL) | 0.2 (≈ 0.066 µg/mL) | 1.4 (≈ 0.462 µg/mL) | 1.4 (≈ 0.462 µg/mL) | 0.15 (≈ 0.0495 µg/mL) | 1 (≈ 0.33 µg/mL) | 1.0 (≈ 0.33 µg/mL) | >50 | >50 | >50 | >50 | > 100 | 
Fc1c(F)c(F)c(-c2nc3c(N4CCOCC4)ncnc3o2)c(F)c1F [Compound 10, Fc1c(c(c(c(c1F)F)-c1nc2c(ncnc2o1)N1CCOCC1)F)F] | 0.2 (≈ 0.0745 µg/mL) | 1.2 (≈ 0.447 µg/mL) | 0.2 (≈ 0.0745 µg/mL) | 1.2 (≈ 0.447 µg/mL) | 1.2 (≈ 0.447 µg/mL) | 0.15 (≈ 0.0558 µg/mL) |  |  |  |  |  |  | 49 | solubility kinetic ([2]; kinetic from dmso stock, kinetic solubility in water, read-out: Kin. Sol): 13.6 µM (≈ 5.06 µg/mL); solubility kinetic [2, 14]: 14 µM (≈ 5.21 µg/mL); Mouse micro Cl [3, 15]: 44 mLmin/g; Microsomal Cli ([3]; supplement data table): 44 mL/min/g; Mouse Heps Cl ([4]; intrinsic clearance (Cli), mouse hepatocytes, Tables 1-4): >50 mLmin/g; Hepatocyte Cli ([4]; supplement data table): >50 mL/min/g; IC50 ([6]; HepG2, read-out: Hs-HEPG IC50): 48 µM
CN(C)c1ncnc2sc(-c3c(F)c(F)cc(F)c3F)nc12 [Compound 2, CN(C)c1ncnc2sc(nc12)-c1c(c(cc(c1F)F)F)F] | > 50 | > 50 | > 50 | > 50 | > 50 | 4.7 (≈ 1.54 µg/mL) |  |  | >50 | >50 |  |  | > 100 | 
CN(C)c1ncnc2c1nc(-c1c(F)c(F)c(F)c(F)c1F)n2C [Compound 7, CN(C)c1ncnc2n(c(nc12)-c1c(c(c(c(c1F)F)F)F)F)C] | 1.9 (≈ 0.652 µg/mL) | > 50 | 1.9 (≈ 0.652 µg/mL) | > 50 | > 50 | 1.7 (≈ 0.584 µg/mL) | 26 (≈ 8.92 µg/mL) | 26 (≈ 8.92 µg/mL) | 8.4 | 8.4 |  |  | > 100 | 
CN(C)c1ncnc2sc(-c3ccc(F)cc3)nc12 [Compound 5, CN(C)c1ncnc2sc(nc12)-c1ccc(cc1)F] | > 50 | > 50 | > 50 | > 50 | > 50 | 19 (≈ 5.21 µg/mL) |  |  | >50 | >50 |  |  | > 100 | 
Fc1c(F)c(F)c(-c2nc3cncnc3s2)c(F)c1F [Compound 11, Fc1c(c(c(c(c1F)F)-c1nc2cncnc2s1)F)F] | 0.34 (≈ 0.103 µg/mL) | 6.3 (≈ 1.91 µg/mL) | 0.342 (≈ 0.104 µg/mL) | 6.3 (≈ 1.91 µg/mL) | 4.7 (≈ 1.43 µg/mL) | 0.279 (≈ 0.0846 µg/mL) | 103 (≈ 31.2 µg/mL) | 103 (≈ 31.2 µg/mL) | 18 | 18 |  |  | 35 | 
